According to patent publication US20060106099A1, “Novel inhibitors of ubiquitin isopeptidases” (priority 2002, published 2006):
Where two headings read alike, the source gives them in different places.

Legend:
p53 [1] = experiment: p53 accumulation, ratio RKO-E6 cells/RKO cells (immunoblot, densitometry); assay type: cell-based, human; details: 6 h; etoposide 50 μM, MG115, NSC-302979, DBA 20 μM, others 60 μM
Procedure: A) Accumulation of polyubiquitin. RKO-E6 cells were treated with DMSO vehicle for 24 h, 37° C., or with the concentrations of test compounds that gave 80% cell death (as determined by cell viability assay at 48 h) for 6, 12, or 24 h, 37° C. […] Schematic depicting p53 degradation via the proteasome pathway in RKO cells versus RKO-E6 cells. The activity of the HPV E6 oncoprotein hastens p53 degradation in RKO-E6 cells. ii. RKO and RKO-E6 cells were treated with vehicle, etoposide (50 μM), MG115 (20 μM), Δ12-PGJ2 (60 μM), NSC-302979 (20 μM, DBA (20 μM), curcumin (60 μM), PGB1 (60 μM), NSC-156236, (60 XM)or DPTP 60 μM for 6 h, 37° C. Lysates were fractionated by SDS-PAGE and their p53 content determined immunochemically. iii. p53 levels were measured by densitometry and the ratio of p53 protein in RKO-E6 cells/RKO cells calculated.
The medium was removed and cells lysed in 50 mM Tris, pH 7.4, 100 mM NaCl, 2 mM EDTA with 0.1% SDS, 0.1% deoxycholate, 1× complete protease inhibitor mixture. Protein concentration was measured by the Bradford method. Equal portions of the total cell lysate were fractionated from each sample (12.5 μg of protein) by SDS-PAGE. Proteins were transferred to poly(vinylidene difluoride) blocked with 5% (w/v) nonfat dry milk in Trisbuffered saline [20 mM Tris-HCl, pH 7.5, 100 mM sodium chloride, 0.1% (v/v) Tween 20]. Proteins were detected immunochemically by using primary antibodies directed against p53 (1:4000) or ubiquitin (1:1000), followed by horseradish peroxidase-conjugated secondary antibodies (1:4000). Antigen-antibody complexes were detected with enhanced chemiluminescence reagents. Gels were scanned and quantified intensities using Kodak 1D Image Analysis Software.

p53 [2] = experiment: p53 accumulation ratio in RKO-E6 and RKO cells, punaglandin study; assay type: cell-based, human; details: 6 h; 50 μM Etoposide, 60 μM PGA2
Procedure: To determine if punaglandins inhibit p53 degradation by disrupting the proteasome pathway, the accumulation ratio of p53 was determined in RKO and RKO-E6 cells treated with selected punaglandins, PNG 4 (8) and PNG 6 (10). Equally seeded RKO and RKO-E6 cells were treated with vehicle (0.5% DMSO), 50 μM Etoposide, 60 μM PGA2 (3), 7 μM PNG 6 (10), and 7 μM PNG 4 (8). After 6 h incubation with vehicle or drug, cells were lysed and harvester. […] of protein from each lysate was fractionated by SDS-PAGE and probed for p53 protein. The p53 band intensities were then analyzed and quantitated using densitometry. The ratio of p53 in RKO-E6 to RKO cells was calculated by dividing the amount of p53 in RKO-E6 cells by the amount in RKO cells and multiplying by 100 to give percent

p21 = p21 accumulation in RKO cells; assay type: cell-based, human; details: 6 h
Procedure: It was therefore hypothesized that the isopeptidase inhibitors PNG 4 (8) and PNG 6 (10) would cause a similar accumulation of p21 protein. RKO cells were treated with 2 μM and 7 μM of 8 and 10, 50 μM Etoposide, 60 μM PGA2 (3), or 0.5% DMSO for 6 h before harvesting. Protein was then quantitated, fractionated by SDS-PAGE, and probed for p21 protein. The p21 band intensities were then analyzed and quantitated using densitometry. The ratio of p21 in treated cells to control cells was calculated by dividing the amount of p21 in treated cells by the amount in control cells and multiplied by 100 to give percent.

RKO cells = experiment: MTT cell viability assay, RKO cells
RKO-E6 cells = experiment: MTT cell viability assay, RKO-E6 cells; details: for EC50: Homo sapiens, RKOE6, 48 h, read-out: Cytotoxic Potency (EC50) RKO-E6
HCT 116 +/+ cells [3] = experiment: MTT cell viability assay, HCT 116 p53 +/+ cells; details: for EC50: Homo sapiens, HCT-116, 48 h, read-out: Cytotoxic Potency (EC50) HCT +/+
Procedure: (§1) Cell viability was measured with MTT reagent as described in materials and methods.
(§2) Cell viability was detected by the MTT assay. Briefly, 1×10^5 cells were incubated per well of a sterile, 96-well assay plate with 0-60 μM of test compounds for 48 hours. MTT reagent was added to each well, final concentration of 0.5 mg/mL, and incubated for an additional 3 hours. The media was aspirated and remaining MTT reagent from each well and added 100 μL of HCl:isopropanol (1:24). The absorbance of each sample was measured at 405 nm.

HCT 116 −/− cells = experiment: MTT cell viability assay, HCT 116 p53 −/− cells; details: for EC50: Homo sapiens, HCT-116, 48 h, read-out: Cytotoxic Potency (EC50) HCT −/−
Procedure: as §1, §2

ubiquitin isopeptidases = experiment: In vitro isopeptidase activity in HCT 116 lysates, Ub-PEST; assay type: biochemical, human; details: 2-200 μM, 45 min
Procedure: Isopeptidase Assay. It was hypothesized that the punaglandins would inhibit ubiquitin-isopeptidase activity of the proteasome pathway as does the prostaglandin, Δ^12-PGJ2 (1), but with greater potency because of the chlorinated C-10. To validate this theory, cellular isopeptidase enzymatic activity was measured in vitro after treatment with individual punaglandins, PNG 2 (6), PNG 3 (7), and Z-PNG 4 (9) and in vivo after individual treatment with PNG 4 (8) and PNG 6 (10). This activity was determined utilizing the simple isopeptidase substrate, ubiquitin-PEST (Ub-PEST), a full/length ubiquitin (Ub) molecule fused with an 18-amino acid C-terminal peptide extension that most isopeptidases use as a substrate. The polypeptide extension contains regions rich in Pro (P), Glu (E), Ser (S), and Thr (T) residues called PEST motifs that are responsible for rapid degradation of these and other unstable proteins. Ub isopeptidases specifically cleave this peptide extension, yielding free, full-length Ub. Both the fused Ub-PEST (10.5 kDa) and the cleaved, free Ub (8.5 kDa) can be observed via immunochemical detection.
In Vitro Isopeptidase Activity. PNG 2 (6), PNG 3 (7), and Z-PNG 4 (9) were initially analyzed for isopeptidase activity in vitro in HCT 116 lysates. Cells were lysed with isopeptidase activity buffer and protein concentration adjusted to 0.3 mg/mL per sample. Each sample was subsequently incubated with 2 μM, 6 μM, 20 μM, 60 μM, or 200 μM of PNG 2 (6), PNG 3 (7), Z-PNG 4 (9), Δ^12-PGJ2 (1), and PGA1 (2) in addition to 50 μg/ml of Ub-PEST. Negative control cells were treated with vehicle (0.5% DMSO) and equivalent Ub-PEST. […] The amount of fused Ub-PEST and free Ub product was determined by SDS-PAGE fractionation.

HCT 116 +/+ cells [4] = details: Mullally et al., University of Utah, 2003; read-out: EC50 in competent HCT 116 cells; cited from earlier work
isopeptidase = details: cited from earlier work
caspase-3 = experiment: Caspase-3 activity in RKO cells (DEVD-AMC); assay type: cell-based, human; details: PNG 4 0.5 μM, PNG 6 1 μM, Taxol 1 μM
Procedure: To determine if selected punaglandins, PNG 4 (8) and PNG 6 (10) also induce apoptosis in RKO cells in a time dependent manner, caspase-3 activity was determined. During apoptosis the caspases, a family of cysteinyl aspartate-specific proteases, are activated. These enzymes cleave specific substrates resulting in biochemical and morphological changes associated with apoptosis. Therefore, detection of activated caspases can be used as a biochemical marker for apoptosis. Caspase-3 has substrate specificity for the amino acid sequence Asp-Glu-Val-Asp (DEVD), cleaving after Asp, and therefore caspase activity can be measured by monitoring cleavage of the substrate DEVD-AMC (Asp-Glu-Val-Asp-7-amino-4-[…]).
RKO cells were treated for 4, 8, and 12 h with PNG 4 (8) at 0.5 μM and PNG 6 (10) at 1 μM. Taxol, a known apoptotic inducer at 1 μM, was used as a positive control, and negative control cells were treated with vehicle (0.5% DMSO). Caspase-3 activity rose steadily as expected from 4-12 h in cells treated with PNG 4 (8), PNG 6 (10), and Taxol but remained constant in the untreated control cells.

[5] = Homo sapiens, RKO, 48 h, read-out: Cytotoxic Potency (EC50) RKO

Structure (SMILES) | p53 in RKO-E6 cells as percent of RKO cells (p53 [2]) | EC50 (RKO cells; [5]) | EC50 (RKO-E6 cells) | EC50 (HCT 116 +/+ cells [3]) | EC50 (HCT 116 −/− cells) | isopeptidase inhibition relative to Δ12-PGJ2 (isopeptidase) | other results
COc1cc([C@@H]2c3cc4c(cc3[C@@H](O[C@@H]3O[C@@H]5CO[C@@H](C)O[C@H]5[C@H](O)[C@H]3O)[C@H]3COC(=O)[C@H]23)OCO4)cc(OC)c1O [Etoposide, etoposide] | 50% | 7.3 ± 1.6 µM | 20 ± 2.7 µM | 7.8 ± 3.9 µM | 29 ± 6.8 µM | – | ratio of p53 protein [RKO-E6 cells/RKO cells] (p53 [1]): 0.1; p21 protein in treated cells relative to control cells (p21; 50 µM): 290%; potency in RKO-E6 cells less than in RKO cells (RKO-E6 cells; 48 h, MTT): ~3 fold; potency in HCT 116 −/− cells less than in HCT 116 +/+ cells (HCT 116 −/− cells; 48 h, MTT): ~4 fold
CCCCC[C@H](O)/C=C/[C@H]1C=CC(=O)[C@@H]1CCCCCCC(=O)O [PGA1] | – | – | – | – | – | significantly less potent | inhibition of Ub-PEST degradation in HCT 116 lysates (ubiquitin isopeptidases): no detectable inhibition; EC50 (HCT 116 +/+ cells [4]): 11.6 µM; EC50 (RKO cells; read-out: EC50 in RKO cell lines, prostaglandins for comparison, comparison values in the text): 33.6 µM
CCCCC[C@H](O)/C=C/[C@H]1C=CC(=O)[C@@H]1C/C=C\CCCC(=O)O [PGA2] | 60% | – | – | – | – | significantly less potent | p21 protein in treated cells relative to control cells (p21; RKO cells, 50 μM Etoposide, 60 μM PGA2, punaglandins 2 and 7 μM): 10%
CC(=O)O[C@H]1C(=O)[C@@]2(C)[C@H]([C@H](OC(=O)c3ccccc3)[C@]3(O)C[C@H](OC(=O)[C@H](O)[C@@H](NC(=O)c4ccccc4)c4ccccc4)C(C)=C1C3(C)C)[C@]1(OC(C)=O)CO[C@@H]1C[C@@H]2O [Taxol, paclitaxel] | – | 0.004 µM | 0.004 µM | 0.004 µM | 0.005 µM | – | Caspase-3 activity from 4-12 h (caspase-3): rose steadily; cell death in RKO compared with RKO-E6 cells (RKO cells; 48 h, MTT, isogenic pair): equivalent; cell death in HCT 116 +/+ compared with HCT 116 −/− cells (HCT 116 +/+ cells [3]; 48 h, MTT, isogenic pair): equivalent
